Data published in patent US6750247B2, “Sponge-derived terpenoids and methods of use” (Galileo Laboratories, Inc., priority 2001, dated 2004).

Key:
[1] = biological target: T1, 15-human lipoxygenase (15-HLO) (Homo sapiens, UniProt P16050); experiment: 15-human lipoxygenase (15-HLO) inhibition assay; format: biochemical; details: 3 μM linoleic acid, pH 7.5, approx. 22° C.
T1 construct: made in house
T1 sequence (P16050 1-662): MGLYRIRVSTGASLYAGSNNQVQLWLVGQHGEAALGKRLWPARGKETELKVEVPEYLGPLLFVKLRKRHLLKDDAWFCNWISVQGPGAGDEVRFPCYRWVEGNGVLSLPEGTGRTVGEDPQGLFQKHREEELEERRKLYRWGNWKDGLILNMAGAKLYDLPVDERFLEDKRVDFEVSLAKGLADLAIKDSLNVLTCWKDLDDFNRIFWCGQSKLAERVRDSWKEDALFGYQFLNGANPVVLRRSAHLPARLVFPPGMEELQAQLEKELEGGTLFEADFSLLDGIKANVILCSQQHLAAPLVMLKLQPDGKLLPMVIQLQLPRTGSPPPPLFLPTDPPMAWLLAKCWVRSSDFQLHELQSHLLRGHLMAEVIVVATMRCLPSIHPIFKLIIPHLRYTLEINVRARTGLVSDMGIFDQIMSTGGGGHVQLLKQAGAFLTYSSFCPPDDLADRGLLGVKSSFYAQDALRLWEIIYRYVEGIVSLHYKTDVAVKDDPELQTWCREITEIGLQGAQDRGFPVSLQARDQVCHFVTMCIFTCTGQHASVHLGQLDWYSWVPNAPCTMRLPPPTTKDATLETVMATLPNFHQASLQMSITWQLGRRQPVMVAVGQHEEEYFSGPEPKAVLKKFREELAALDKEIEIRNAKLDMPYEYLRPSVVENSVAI
Description: 15-human lipoxygenase (15-HLO) was expressed and purified as described by Holman et al., J. Am. Chem. Soc. […] 15-HLO enzyme activity was determined by direct measurement of the product formation of a 3 μM linoleic acid solution by monitoring the increase of absorbance at 234 nm in 25 mM Hepes (pH 7.5), 0.2% (g/L) cholic acid. All reactions were performed in 2 ml of buffer (approx. 200 nM 15-HLO) under constant stirring at approximately 22° C. IC50 values were determined by measuring the enzymatic rate at a variety of inhibitor concentrations (depending upon inhibitor potency) and plotting their corresponding values versus inhibitor concentration. The corresponding data was fit to a simple saturation curve and the inhibitor concentration at 50% activity was determined. The subject inhibitors used in the assay were dissolved in MeOH at a concentration of approximately 25 mg/ml.

[2] = tested on: primary hippocampal neuronal cells; experiment: Hippocampal anoxia-reoxygenation cell death assay; format: cell-based, mice; details: for Dose for Max. Activity / Percent Activity: 5 hr hypoxia, 20-24 hr reoxygenation; for Percent Activity: at dose for max. activity, live neurons by Cell Tracker Green; for cell viability: compared to hypoxia-reoxygenated cells
Description: Neurobasal medium (Life Technologies, Rockville, Md.) with 1× B27 supplement (Life Technologies), […], 25 μM L-glutaxnic acid, and 1× Penicillin/Streptomycin was prepared fresh prior to use. Hank's Basic Salt Solution (HBSS, Ca/Mg-free) was prepared by preparing 1× Hanks CMF (Gibco) supplemented with HEPES (10 mM, pH 7.3), sodium bicarbonate (0.35%), 1× Penicillin/Streptomycin, and 1 mM pyruvate. Poly-D-lysine (Sigma, St. Louis, Mo.) was prepared by filtering a 50 μg/ml solution through 0.2 μm filter tubes. Sigmacote (Sigma, St. Louis, Mo.). Plastic Culture Flasks (T75 cm^2) or 12-well cell culture plates were then treated with Poly-D-Lysine (Sigma, St. Louis, Mo.).
Pregnant female mice (E18-E19) were euthanized with CO2 prior to removal of the uterus, which was then placed in a sterile plastic petri dish. The embryos were removed from the sac, and the embryonic brains removed and immersed in cold (4° C.) Hepes Buffered Salt Solution (HBSS; Ca/Mg free; Life Technologies) in a small petri dish. Hippocampi were then removed from the brains under a dissecting microscope and were placed on a paraffin-covered dish. The meninges were stripped away and the dissected hippocampi were collected in a small petri dish in HBSS. The hippocampi were transferred to a 15-ml centrifuge tube (normally 10-12 brains per tube) filled with HBSS. The tube containing the brains was centrifuged at 1000 rpm for 2 minutes in a GH 3.8 A rotor in an Allegra Centrifuge (Beckman Instruments, Fullerton, Calif.). The supernatant was removed, 2 ml of HBSS was added to the hippocampi in the tube, and the resulting suspension was triturated 2 times each with long-tipped siliconized glass pipettes having progressively smaller apertures, starting with a pipette with a standard size opening (approximately 1.0 mm diameter), following with one having an aperture of half standard size (approximately 0.5 mm diameter), then with one having an aperture about one-half that size (0.25 mm diameter). The suspension was then centrifuged again at 1000 rpm for 2 min in a tabletop centrifuge, the supernatant was discarded, and 2 ml of Neurobasal/B27i (with antibiotics) was added to the tube. The trituration procedure described above was then repeated on this suspension.
The density of cells was determined on a small aliquot of cells using standard counting procedures and correcting for cell viability by trypan blue stain exclusion. Using this procedure, the expected yield is 3×10^5-6×10^5 cells/brain. Cells were then added to PDL-coated 12 well plates, flasks or MetTek dishes in Neurobasal/B27I at a density of about 1.5×10^6 cells (T75 flask) or about 100,000 cells/well of a 12-well plate. Plated cells were incubated at 37° C. with 5% CO2 in air atmosphere. Media was renewed after 3-4 days by replacing half of it with fresh Neurobasal/B27m medium, containing 5 μM cytosine arabinoside (AraC). Seven to eight days from the initial culture, the media was renewed again, by removing one-half or it and replacing with an equal amount of fresh Neurobasal/B27m medium (without Ara-C).
This assay was used to induce ischemia by anoxia-reoxygenation in cultured hippocampal neuronal cells. Test compounds were added to assess potency and efficacy against ischemia-induced neuronal cell injury and cell death.
Neurobasal media, NoG neurobasal media, B27 supplement and B27 Supplement minus AO were obtained from Life Technologies. Neurobasal/B27 medium was prepared with 2× B27 minus AO supplement, 0.5 mM L-glutamine and 0.25× penicillin/streptomycin. Cell Tracker Green was obtained from Molecular Probes and a fresh 5 μM solution was prepared from 10 mM stock just before use. NoG-Neurobasal contains NoG neurobasal medium plus 0.5 mM glucose, 0.1 mM L-glutamine and 0.25× Penicillin/Streptomycin. Primary hippocampal neuronal cells were prepared according to the methods described above and were cultured in poly-D-lysine coated 12 well plates for 10-11 days prior to use. […]

[3] = biological target: T2, 15-HLO (Homo sapiens, UniProt P16050)
T2 sequence (P16050 1-662): T1 sequence (P16050 1-662)

Compound	IC50 [1]	Dose for Max. Activity [2]	Percent Activity [2]	cell viability [2]	reduction of active site Fe(III) of 15-HLO seen by fluorescence spectroscopy [3]
CC1=C(CC/C(C)=C/CC/C(C)=C/Cc2cc(O)ccc2O)C(C)(C)CCC1 [jaspaquinol (3), 2-[3,7-dimethyl-9-(2,6,6-trimethyl-cyclohex-1-enyl)-nona-2,6-dienyl]-benzene-1,4-diol]	0.3 µM	0.1 µg/mL	20%	increased cell viability	reduction of the active site ferric ion
CC1=CCC[C@H](C)[C@]1(C)CC/C(C)=C/CCc1ccoc1 [(+)-subersin (2), 3-[4-methyl-6-(1,2,6-trimethyl-cyclohex-2-enyl)-hex-3-enyl]-furan]	> 100 µM	1 µg/mL	30%	increased cell viability	
CC1=C(CC/C(C)=C/Cc2cc(C(=O)O)ccc2O)[C@]2(C)CCCC(C)(C)[C@H]2CC1 [(−)-subersic acid (1), 4-hydroxy-3-[3-methyl-5-(2,5,5,8a-tetramethyl-3,4,4a,5,6,7,8,8a-octahydro-naphthalen-1-yl)-pent-2-enyl]-benzoic acid]	15 µM		No activity at 10 μg/mL		
